According to patent publication US11059808B2, “Substituted phenylpyrrolecarboxamides with therapeutic activity in HIV” (New York Blood Center, Inc., priority 2014, dated 2021):

Key:
TZM-bl cells = experiment: Cytotoxicity in TZM-bl cells (XTT); format: cell-based; conditions: for CC50: XTT, 3 days
Protocol: The cytotoxicity of test compounds in TZM-bl cells was also measured by the XTT method described previously^7. […] The soluble intracellular formazan was quantitated colorimetrically at 450 nm 4 h later. The percent of cytotoxicity and the CC50 values were calculated as above. (See Table 4)

[1] = tested on: HIV-1 pseudovirus pseudotyped with HXB2 Env; experiment: microbe, parasite or virus in culture; format: cell-based; conditions: single cycle assay, TZM-bl cells infected with HIV-1 pseudovirus pseudotyped with HXB2 Env;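 note: endpoint is IC50 for inhibition of pseudovirus infection of TZM-bl cells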
[2] = Human immunodeficiency virus 1, HXB2, TZM-bl

| Structure (SMILES) | CC50 (TZM-bl cells) [µM] | IC50 [1, 2] [µM] | IC50 [1] [µM] | percentage in brackets after CC50 >51 (TZM-bl cells; printed "(30%)" without explanation, presumably toxicity at 51 μM) [%] |
| --- | --- | --- | --- | --- |
| Cc1nc(C(CN)NC(=O)c2ccc(-c3ccc(Cl)cc3)n2C)sc1CO (single isomer, unassigned) [Compound 91] | 35.8 ± 0.3 | 26 ± 1.4 |  |  |
| CNCC(NC(=O)c1ccc(-c2ccc(Cl)c(F)c2)[nH]1)c1nc(C)c(CO)s1 (single isomer, unassigned) [Compound 57] | ~20 |  | ~0.6 |  |
| CNCCC(NC(=O)c1ccc(-c2ccc(Cl)c(F)c2)[nH]1)c1nc(C)c(CO)s1 (single isomer, unassigned) [Compound 81] | 22 ± 0.6 |  | 1.5 ± 0.4 |  |
| Cc1nc(C(NC(=O)c2ccc(-c3ccc(Cl)c(F)c3)[nH]2)C(C)(C)N)sc1CO (single isomer, unassigned) [Compound 112] | 13.9 ± 0.7 |  | 0.27 ± 0.04 |  |
| NCC(NC(=O)c1ccc(-c2ccc(Cl)cc2)[nH]1)c1ncc(CO)s1 (single isomer, unassigned) [Compound 103] | 37.1 ± 0.3 | 0.75 ± 0.2 |  |  |
| Cc1ccc(-c2ccc(C(=O)NC(CN)c3ncc(CO)s3)[nH]2)cc1F (single isomer, unassigned) [Compound 100] | 39.2 ± 0.8 |  |  |  |
| Cc1nc(C(NC(=O)c2ccc(-c3ccc(Cl)cc3)[nH]2)C2CCCCN2)sc1CCO (single isomer, unassigned) [Compound 29] | 15.4 ± 0.3 |  | 5.9 ± 0.2 |  |
| Cc1cc(-c2ccc(Cl)cc2)[nH]c1C(=O)NC(CN)c1nc(C)c(CO)s1 (single isomer, unassigned) [Compound 69] | 27.2 ± 0.8 |  |  |  |
| Cc1nc(C(CN)NC(=O)c2ccc(-c3ccc(Cl)cc3)n2C)sc1CO (single isomer, unassigned) [Compound 92] | 36.7 ± 0.4 |  | 25.8 ± 1.1 |  |
| Cc1nc(C(CN)NC(=O)c2ccc(-c3ccc(Cl)cc3)[nH]2)sc1CN (single isomer, unassigned) [Compound 108] | 14.6 ± 0.2 | 12.1 ± 0.5 |  |  |
| Cc1nc(C(CN)NC(=O)c2cnc(-c3ccc(Cl)cc3)[nH]2)sc1CO (single isomer, unassigned) [Compound 94] | > 51 |  |  |  |
| CC(C)(N)C(NC(=O)c1ccc(-c2ccc(Cl)c(F)c2)[nH]1)c1ncc(CO)s1 (single isomer, unassigned) [Compound 124] | 16.3 ± 0.6 |  | 0.46 ± 0.01 |  |
| Cc1nc(C(CN)NC(=O)c2ccc(-c3ccc(F)c(F)c3)[nH]2)sc1CO (single isomer, unassigned) [Compound 122] | > 51 |  |  | 30 |
| Cc1nc(C(NC(=O)c2ccc(-c3ccc(Cl)c(F)c3)[nH]2)C2CCCCN2)[nH]c1CO (single isomer, unassigned) [Compound 36] | 31.5 ± 0.2 |  | 16.2 ± 0.2 |  |
| Cc1ccc(-c2ccc(C(=O)NC(c3nc(C)c(CO)[nH]3)C3CCCCN3)[nH]2)cc1F (single isomer, unassigned) [Compound 38] | 34 ± 0.2 |  | 17 ± 0.2 |  |
| Cc1nc(C(CN)NC(=O)c2ncc(-c3ccc(Cl)cc3)[nH]2)sc1CO (single isomer, unassigned) [Compound 96] | > 51 |  | ~51 |  |
| Cc1ccc(-c2ccc(C(=O)NC(CN)c3nc(C)c(CO)s3)[nH]2)cc1F (single isomer, unassigned) [Compound 44] | ≥ 34 |  | 1.1 ± 0.1 |  |
| Cc1nc(C(NC(=O)c2ccc(-c3ccc(Cl)c(F)c3)[nH]2)C2CCCCN2)sc1CCO (single isomer, unassigned) [Compound 27] | 15.1 ± 0.2 |  | 8 ± 0.1 |  |
| CNc1cc(NC(=O)c2ccc(-c3ccc(F)c(Cl)c3)[nH]2)nc(NC(=N)N)n1 [Compound 53] | ≥ 36 |  |  |  |
| NCC(NC(=O)c1ccc(-c2ccc(Cl)c(F)c2)[nH]1)c1ncc(CO)s1 (single isomer, unassigned) [Compound 102] | 31.8 ± 0.4 |  | 0.77 ± 0.04 |  |

| Structure (SMILES) | CC50 (TZM-bl cells) [µM] | IC50 [1, 2] [µM] | IC50 [1] [µM] | percentage in brackets after CC50 >51 (TZM-bl cells; printed "(30%)" without explanation, presumably toxicity at 51 μM) [%] |
| --- | --- | --- | --- | --- |
| CNCCC(NC(=O)c1ccc(-c2ccc(C)c(F)c2)[nH]1)c1nc(C)c(CO)s1 (single isomer, unassigned) [Compound 79] | 38.9 ± 2.1 |  | 1.6 ± 0.4 |  |
| CNCC(NC(=O)c1ccc(-c2cc(F)c(Cl)c(F)c2)[nH]1)c1ncc(CO)s1 (single isomer, unassigned) [Compound 128] | 10.4 ± 0.8 |  | 0.36 ± 0.04 |  |
| CNCC(NC(=O)c1ccc(-c2ccc(C)c(F)c2)[nH]1)c1ncc(CO)s1 (single isomer, unassigned) [Compound 117] | 27.4 ± 0.8 | 1 ± 0.2 |  |  |
| Cc1nc(C(CCN)NC(=O)c2ccc(-c3ccc(Cl)c(F)c3)[nH]2)sc1CO (single isomer, unassigned) [Compound 87] | 35 ± 3 |  | 6.6 ± 2 |  |
| Cc1nc(C(NC(=O)c2ccc(-c3ccc(Cl)cc3)[nH]2)C(C)(C)N)sc1CO (single isomer, unassigned) [Compound 110] | 20.6 ± 1.2 |  | 1.1 ± 0.2 |  |
| Cc1nc(C(NC(=O)c2ccc(-c3ccc(Cl)cc3)[nH]2)C2CCCCN2)[nH]c1CO (single isomer, unassigned) [Compound 34] | 34 ± 0.1 |  | 16 ± 0.1 |  |
| COc1ccc(-c2ccc(C(=O)NC(CN)c3ncc(CO)s3)[nH]2)cc1OC (single isomer, unassigned) [Compound 130] | > 74.5 |  | > 74.5 |  |
| Cc1ccc(-c2ccc(C(=O)NC(c3nc(C)c(CO)s3)C(C)(C)N)[nH]2)cc1F (single isomer, unassigned) [Compound 114] | 17.8 ± 0.3 |  | 0.34 ± 0.02 |  |
| Cc1ccc(-c2ccc(C(=O)NC(CNC(=N)N)c3nc(C)c(CO)s3)[nH]2)cc1F (single isomer, unassigned) [Compound 50] | > 37 |  | > 20 |  |
| Cc1nc(C(CNC(=N)N)NC(=O)c2ccc(-c3ccc(Cl)cc3)[nH]2)sc1CO (single isomer, unassigned) [Compound 46] | > 37 |  | ≥ 20 |  |
| CNCC(NC(=O)c1ccc(-c2cc(F)c(Cl)c(F)c2)[nH]1)c1ncc(CO)s1 (single isomer, unassigned) [Compound 127] | 13.9 ± 0.7 | 0.42 ± 0.2 |  |  |
| Cc1nc(C(CN)NC(=O)c2ccc(-c3ccc(Cl)c(F)c3)[nH]2)sc1CO (single isomer, unassigned) [Compound 42] | ≥ 33 |  |  |  |
| Cc1nc(C(CN)NC(=O)c2ccc(-c3ccc(Cl)c(F)c3)[nH]2)sc1CO (single isomer, unassigned) [Compound 52] | 50.5 ± 1.3 |  |  |  |
| CNCC(NC(=O)c1ccc(-c2ccc(Cl)cc2)[nH]1)c1nc(C)c(CO)s1 (single isomer, unassigned) [Compound 59] | ~22 |  |  |  |
| CNCC(NC(=O)c1ccc(-c2ccc(C)c(F)c2)[nH]1)c1nc(C)c(CO)s1 (single isomer, unassigned) [Compound 55] | ~40 |  |  |  |
| Cc1nc(C(CN)NC(=O)c2ccc(-c3ccc(Cl)cc3)[nH]2)sc1CO (single isomer, unassigned) [Compound 40] | ~40 |  |  |  |
| Cc1cc(C(=O)NC(CN)c2nc(C)c(CO)s2)[nH]c1-c1ccc(Cl)cc1 (single isomer, unassigned) [Compound 98] | 22.2 ± 0.3 |  |  |  |
| CC(=O)NCC(NC(=O)c1ccc(-c2ccc(Cl)c(F)c2)[nH]1)c1nc(C)c(CO)s1 (single isomer, unassigned) [Compound 60] | > 44 |  |  |  |
| Cc1nc(C(CN(C)C)NC(=O)c2ccc(-c3ccc(Cl)cc3)[nH]2)sc1CO (single isomer, unassigned) [Compound 63] | ~30 |  |  |  |
| CC(=O)NCC(NC(=O)c1ccc(-c2ccc(Cl)c(F)c2)[nH]1)c1nc(C)c(CO)s1 (single isomer, unassigned) [Compound 61] | > 44 |  |  |  |
